From patent publication USRE37781E1, “Substituted cyclic carbonyls and derivatives thereof useful as retroviral protease inhibitors” (DuPont Pharmaceuticals Company, priority 1991, dated 2002) come the findings set out here.

The structures appear in SMILES notation. pKi: −log10 of the molar value.

In one assay the target is single-chain tethered dimer of HIV protease (Human immunodeficiency virus 1, UniProt P04585). The assay can be described thus: biochemical. It is filed as biochemical. The conditions noted are these: HIV protease inhibition; class symbols; read-out: Ki. The protocol: HIV Protease Inhibition Assay—HPLC Method
Active protease was prepared as described therein by extraction with 67% acetic acid, dilution 33-fold with water, dialysis against water and then against a “refolding buffer” consisting of 20 mM MES, 1 mM dithiothreitol and 10% glycerol. Protease was stored as a stock preparation at 10 uM in refolding buffer.
Substrate: Peptide of sequence: aminobenzoyl-Ala-Thr-His-Gln-Val-Tyr-Phe(NO2)-Val-Arg-Lys-Ala containing p-nitrophenylalanine, was prepared by solid phase synthesis as previously described Cheng et al., op.cit. Stock solutions of 2 mM substrate were prepared in DMSO.
Inhibitory compounds were dissolved in sufficient DMSO to make 3 mM stock solutions. All further dilutions were prepared in “assay buffer”: 1M NaCl, 50 mM MES, pH 5.5, 1 mM EDTA, 1 mM DTT, […] glycerol.
Enzyme reaction: In a 2 ml screw-cap centrifuge tube were added 50 ul protease (final concentration 0.25 nM) and 0.1 ml inhibitory compound (final concentration […]). After 15 min preincubation at room temperature, the reaction was started with the addition of 0.05 ml substrate (final concentration 5 uM). Incubation was carried out at 30 C. for 1 hr. The reaction was stopped with 1 ml 0.1M ammonium hydroxide.
HPLC measurement of product formation: The product (aminobenzoyl-Ala-Thr-His-Gln-Val-Tyr) was separated from substrate on a Pharmacia MonoQ anion exchange column. The injection volume was 0.2 ml. The mobile phases were: A (20 mM trisHCl, pH 9.0, 0.02% sodium Azide, 10% acetonitrile), B (20 mM tris HCl, pH 9.0, 0.02% sodium azide, 0.5M ammonium formate, 10% acetonitrile). The mobile phases were pumped at 1 ml/min, with a gradient from 0 to 30% B in 5 min, 100% B for 4 min to wash the column, and a re-equilibration for 4 min. The retention time of the product was 3.6 min. Detection with a Shimadzu model RF535 fluorescence monitor was at 330 nm (excitation) and 430 (emission).
What is called pKi is the negative decadic logarithm of the Ki, by convention in mol/L. For the molecule `O=C1NC(Cc2ccccc2)C(O)C(O)C(Cc2ccccc2)N1CC1CC1` (centres unmarked) [Example 4X], the pKi is 6.00 to 8.00.

Still in this assay, the particulars now being: Table 2t; read-out: Ki.
For the molecule `O=C1N(Cc2ccccc2)CC(O)C(Cc2ccccc2)N1Cc1ccccc1` (racemic) [30A], the negative-log Ki (pKi) is less than 6.00.

For `O=C1N(Cc2ccc(CO)cc2)CC(O)C(Cc2ccccc2)N1Cc1ccc(CO)cc1` (centres unmarked) [30B], the pKi was less than 6.00. Same read-out and setting: then `N#Cc1cccc(CN2CC(O)C(Cc3ccccc3)N(Cc3cccc(C#N)c3)C2=O)c1` (centres unmarked) [30C], with less than 6.00; and `O=C1N(Cc2ccc(O)cc2)CC(O)C(Cc2ccccc2)N1Cc1ccc(O)cc1` (centres unmarked) [30D], with less than 6.00; and `O=C1N(CC2CC2)CC(O)C(Cc2ccccc2)N1CC1CC1` (centres unmarked) [30E], with less than 6.00. Regarding `O=C1N(Cc2ccc3ccccc3c2)CC(O)C(Cc2ccccc2)N1Cc1ccc2ccccc2c1` (centres unmarked) [30F], the negative-log Ki (pKi) is less than 6.00.

With `O=C1N(CCCCCCO)CC(O)C(Cc2ccccc2)N1CCCCCCO` (centres unmarked) [30G], the pKi is less than 6.00.

Regarding `O=S1(=O)N(Cc2ccc3ccccc3c2)CC(O)C(Cc2ccccc2)N1Cc1ccc2ccccc2c1` (centres unmarked) [30I], the pKi was 6.00 to 8.00. Turning to `O=S1(=O)N(CC2CC2)CC(O)C(Cc2ccccc2)N1CC1CC1` (centres unmarked) [30J], the negative logarithm of the Ki (pKi) was less than 6.00. In the case of `O=C1N(Cc2ccccc2)CCC(O)C(Cc2ccccc2)N1Cc1ccccc1` (centres unmarked) [30L], the pKi is less than 6.00. The same measure, in the same setting: to `O=C1N(Cc2ccc3ccccc3c2)CCC(O)C(Cc2ccccc2)N1Cc1ccc2ccccc2c1` (centres unmarked) [30M] belongs less than 6.00; to `O=C1N(Cc2ccc(CO)cc2)CCC(O)C(Cc2ccccc2)N1Cc1ccc(CO)cc1` (centres unmarked) [30N], 6.00 to 8.00.

Regarding `O=C1N(CC2CC2)CCC(O)C(Cc2ccccc2)N1CC1CC1` (centres unmarked) [30O], the negative logarithm of the Ki (pKi) is less than 6.00. With `N#Cc1cccc(CN2CCC(O)C(Cc3ccccc3)N(Cc3cccc(C#N)c3)C2=O)c1` (centres unmarked) [30P], the pKi is less than 6.00. With `O=S1(=O)N(Cc2ccccc2)CCC(O)C(Cc2ccccc2)N1Cc1ccccc1` (centres unmarked) [30Q], the negative logarithm of the Ki (pKi) is less than 6.00. Still for that read-out and setting: then `NC(=NO)c1cccc(CN2CCC(O)C(Cc3ccccc3)N(Cc3cccc(C(N)=NO)c3)C2=O)c1` (centres unmarked) [30R], with greater than 8.00.

With `O=C1CCN(Cc2ccccc2)C(=O)N(Cc2ccccc2)C1Cc1ccccc1` (centres unmarked) [30S], the pKi was less than 6.00.

On to `O=C1N(Cc2ccccc2)CCC(=NO)C(Cc2ccccc2)N1Cc1ccccc1` (centres unmarked) [30T], for which the pKi is less than 6.00. The same measure, in the same setting: to `O=C1N(Cc2ccccc2)CC(O)C(Cc2ccccc2)N1Cc1ccccc1` (centres unmarked) [30U] belongs less than 6.00.
